Data taken from US20240390238A1, “MINIMALIST EMULSION COMPOSITIONS” (Baek Clinical Inc., priority 2021, published 2024).

What was measured:
[1] = Solubility of optional additional components in the solvents; type: physicochemical
Text: Additional ingredients were chosen for their compatibility with (e.g., miscibility in) 1,3 propanediol, 1,2 propanediol, and 1,3 butanediol.

erythema (skin redness) = conditions: concentrations of 0.2%; clinical data from SEPPIC; cited from earlier work
[2] = Protocol: A series of experiments were performed to assess and optimize the components of the subject vitamin C formulations. […] U refers to urea. % values are wt %
[3] = Comparative studies of prior-art ascorbic acid solutions; type: physicochemical; conditions: ascorbic acid with urea in propylene glycol, butylene glycol and propanediol
Protocol: This example was reproduced.
All mixtures were heated to 85° C.

With O=C(O)CCCCCCCC(=O)O [AzA, Azelaic acid, reference compound] the “Concentration solubilized in 1,3 propanediol” value [1] was “up to 10%”, the “Solubility in 1,3 propanediol in the presence of hydroxyethyl urea” value [1] was “slightly increased” and the “Concentration solubilized in a 1,3 propanediol base” value ([1]; with 10% AA, 5% U) was 7.5%.
For madecassoside, the “Solubility in 1,3 propanediol, 1,2 propanediol and 1,3 butanediol” value ([1]; at a concentration of 0.2%) is given as “soluble” and the “Erythema (skin redness)” value (erythema (skin redness)) is given as “desirable ability to reduce erythema”.
In the case of CC1(C)[C@@H](O[C@H]2O[C@H](C(=O)O)[C@@H](O)[C@H](O)[C@H]2O[C@@H]2O[C@H](C(=O)O)[C@@H](O)[C@H](O)[C@H]2O)CC[C@]2(C)[C@H]3C(=O)C=C4[C@@H]5C[C@@](C)(C(=O)O)CC[C@]5(C)CC[C@@]4(C)[C@]3(C)CC[C@@H]12 [glycyrrhizic acid, Glycyrrhizic acid], the “Solubility in 1,3-propanediol” value ([1]; unlike 18B-glycyrrhetinic acid) is reported as “shows solubility”.
For COc1cc(CC(C(C)=O)C(C)=O)ccc1O [Acetyl zingerone], the “Solubility in 1,3 propanediol, 1,2 propanediol and 1,3 butanediol” value ([1]; at the desired concentrations (0.5-1%)) was “readily soluble”.
In the case of NC(N)=O [urea], the “Minimum amount U required to solubilize 20% AA” value [2] is reported as ~10%, the “Solubility of U in 1,3 propanediol (saturation reached before recrystallization of U)” value [2] is reported as ~27.8% and the “Maximum concentrations soluble before urea starts to precipitate (the ceiling)” value [3] is reported as 20%.
